Laboratory results: US20130216614A1, “IMMUNOGENIC COMPOSITIONS AND METHODS FOR TREATING NUEROLOGIC DISORDERS” (Glaxosmithkline Biologicals S.A., priority 2010, published 2013)

Columns and labels:
[1] = system: APPSwe/PS1 mice; test: T-water maze; type: in vivo, mouse; settings: for T maze reversal test compared with group 1 (PBS): 12x weekly; for spatial memory / behaviour in T water maze compared to non-treated mice: twelve weekly injections, CRX 20 μg i.p., 3D MPL 50 μg i.p., AS01B 1/10th human dose i.m.
Experimental: Five groups of APPSwe/PS1 mice have received one a week for a period of 12 weeks the following treatment: • Gr1: APPSwe/PS1+NaCl 0.9% n(=20), i.p. injections • Gr4: APPSwe/PS1+CRX527 (20 μg/mouse, 130 μl, n=10), i.p. injections • Gr5: APPSwe/PS1+CRX601 (20 μg/mouse, 130 μl, n=10), i.p. injections • Gr6: APPSwe/PS1+3D MPL (50 μg/mouse, 130 μl, n=10), i.p. injections • Gr8 APPSwe/PS1+AS15 • Gr9: APPSwe/PS1+AS01B ( 1/10th of human dose μg/kg, 50 μl, n=10), i.m. injections
Mice were tested during the “light on” phase of the day. Behavioral experimenter was blinded to the genetic and treatment status of animals. To assess hippocampal-dependent spatial learning and memory, mice were trained in the T-water maze task. In this paradigm, we evaluate the mouse's ability to remember the spatial location of submerged platform. The T-maze apparatus (length of stem, 64 cm; length of arms, 30 cm; width, 12 cm; height of walls, 16 cm) was made of clear fiberglass and filled with water (23±1° C.) at a height of 12 cm. A platform (11×11 cm) was placed at the end of the target arm and was submerged 1 cm below the surface. The acquisition phase allows to evaluate animals for left-right spatial learning. During the first two trials, platforms were placed on each arms of the maze to test the spontaneous turning preference of the mouse. After these two trials, the least chosen arm was reinforced by the escape platform. The mice were placed in the stem of the T-maze and choose to swim either left or right until they found the submerged platform and escape to it, to a maximum of 60 s. After reaching the platform, the mice remained on it for 20 s and then were immediately placed back in the maze. […] Repeated trials were presented on the same day up to a maximum of 48 trials. A rest period of at least 10-15 min intervened between each block of 10 trials. A mouse was considered to have learned the task when it made no errors in a block of five consecutive trials. The reversal learning phase was then conducted 48 h later.
During this phase, the same protocol was repeated, except that the mice were trained to find the escape platform on the opposite side to that on which they had learned on acquisition phase. The number of trials to reach the criterion (five of five correct choices made on consecutive trials) was measured as well as the latency to find the escape platform.
Further experiments were carried out using the following groups.

[2] = system: CD11b+ monocytes; test: Peripheral blood CD11b+ monocyte number by flow cytometry after single injection; type: in vivo, C57BL/6 mice; settings: for CD11b+ monocyte number in peripheral blood: 24 hrs after single injection; for circulating monocytes in peripheral blood: intramuscular injection; for circulating monocytes in peripheral blood / total monocytes in the peripheral blood: 24 hrs, normal count 5%; for total monocytes in the peripheral blood: intraperitoneal route
Description: Monocytes are the peripheral blood precursor cells of microglia (Rezaie, P., et al 1999. Microglia in the human fetal spinal cord—patterns of distribution, morphology and phenotype. Brain Res. Dev. Brain Res. 115:71-81: Mildner et al Nat Neurosci. 2007 December; 10(12):1544-53. Epub 2007 Nov. 18. PubMed PMID: 18026096.). During embryonic development, microglia populate the CNS from myeloid lineage precursors in the bone marrow and these cells are circulating in the peripheral blood before becoming macrophages in their infiltrating tissues, such as microglia are for the brain. Markers such as CD11b and Ly6C are immunologicals markers that are present on peripheral blood monocytes and persist when they are infiltrating the brain (Mildner et al., 2007 infra, Lebson L, et al Trafficking CD11b-positive blood cells deliver therapeutic genes to the brain ofamyloid-depositing transgenic mice. J Neurosci. 2010 Jul. 21; 30(29):9651-8. PubMed PMID: 20660248.). To investigate whether 3D MPL containing adjuvants and s are contributing to induce the number of monocytes in the peripheral blood, we have performed a single injection of those molecules and measure after 24 hrs (post injection) the CD11b+ monocytes number by a flow cytometry method (Mildner A, et al Microglia in the adult brain arise from Ly-6ChiCCR2+ monocytes only under defined host conditions. Nat Neurosci. 2007 December; 10(12):1544-53. Epub 2007 Nov. 18. PubMed PMID: 18026096). As described in FIG. 3, we are showing an increase of CD11b+ monocyte number having that phenotypic composition of markers :CD11b+, lineage cocktail negative (CD3-, B220-, NK1.1-,Ly6C-) after the injection of 3D MPL or AS15 or AS01B or CRX527 or CRX601. Comparing to a normal monocyte number count in the peripheral blood, which is 5% whereas the intramuscular (i.m.) injection of AS01B, and AS15 are showing an increase of the number of circulating monocytes to up to 20%. Moreover, the injection of 3D MPL or CRX601 or CRX601 using the intraperitoneal route is also showing a 22% of total monocytes in the peripheral blood.
Peripheral blood was drawn from C57BL/6 mice via cardiac puncture with lithium-heparin as anticoagulant, 24-Hour after injection of the TLR adjuvants. Red blood cell lysis was performed twice on pooled blood with Ammonium Chloride-based Buffer (Sigma, Steinheim, Germany) and cells were counted with the EasyCount™ System (Immunicon). After one washing step, 500,000 cells were incubated with Rat anti-Mouse CD16/CD32 (BD Fc Block™ by BD Biosciences) for 10 min. on ice and cells were further incubated for 30 min. with a combination of the following directly conjugated antibodies at their pre-determined optimal concentration as described by Mildner et al., 2007): PerCP labeled-Streptavidin, PE-Hamster anti-Mouse CD3, Rat anti-Mouse CD45R/B220, Rat anti-Mouse Ly-6G, Mouse anti-Mouse NK1.1 APC-conjugated Rat anti-Mouse CD11b, PE-Cy7-conjugated Hamster anti-Mouse CD11c, FITC-Rat Anti-Mouse Ly-6C (all from BD Biosciences) and Pacific Blue™ Rat anti-Mouse CD62L (BioLegend, San Diego, Calif.). Cells were finally washed three times and fixed for 15 min. with a 2% paraformaldehyde solution in PBS. Fluorescence minus one (FMO) controls were always included in the assays for fluorescent compensation setting.
Samples were acquired on a flow cytometer (BD FACSCanto II) and data analyzed with the FACSDiva software (BD Biosciences).
Monocytes were identified by their Side/Forward scatter properties and gated as CD3-/CD45R/B220-/Ly-6G-/NK1.1-(Lineage-)/CD11b+ cells. CD11b+ monocytes frequency was reported as a percentage of the total cells excluding debris.
24-Hour after injection of the TLR adjuvants, peripheral blood was drawn from C57BL/6 mice via cardiac puncture with lithium-heparin as anticoagulant. Red blood cell lysis was performed twice on pooled blood with Ammonium Chloride-based Buffer (Sigma, Steinheim, Germany) and cells were counted with the EasyCount™ System (Immunicon). […]

Molecule | T maze reversal test compared with group 1 (PBS) ([1]; group 9: intra peritoneal 50 ug per mouse) | T maze reversal test compared with group 1 (PBS) ([1]; group 10: i.m. 5 ug per mouse) | spatial memory / behaviour in T water maze compared to non-treated mice [1] | spatial memory / behaviour in T water maze compared to non-treated mice ([1]; listed as 3D-MPL) | CD11b+ monocyte in the peripheral blood ([2]; 5 μg dose i.m., 24 hours) | peripheral blood monocyte count ([2]; 50 μg dose i.m., 24 hours) | CD11b+ monocyte number in peripheral blood [2] | circulating monocytes in peripheral blood [2] | total monocytes in the peripheral blood [2] [%] | T maze reversal test compared with group 1 (PBS) ([1]; group 3: i.m. 2 ug per mouse) | spatial memory / behaviour in T water maze compared to non-treated mice ([1]; listed as CRX 601) | monocyte count effect ([2]; 20 μg dose i.m.) | amount enough to trigger an increase of the monocyte count ([2]; single i.m. injection, six doses 0.2 to 20 μg) [µg] | spatial memory / behaviour in T water maze compared to non-treated mice ([1]; listed as CRX 527)
3-O-desacyl-4′-monophosphoryl lipid A [3D MPL] | significantly improved | significantly improved | spatial memory improvement | significant improvements | double increase | drop | increase | ≤ 13% | 22 |  |  |  |  | 
CCCCCCCCCCC[C@H](CC(=O)N[C@H]1[C@H](OC[C@H](NC(=O)C[C@@H](CCCCCCCCCCC)OCCCCCCCCCC)C(=O)O)O[C@H](CO)[C@@H](OP(=O)(O)O)[C@@H]1OC(=O)C[C@@H](CCCCCCCCCCC)OCCCCCCCCCC)OCCCCCCCCCC [CRX601] |  |  | spatial memory improvement |  |  |  | increase | up to 12% | 22 | significantly improved | significant improvements | down modulated | 1 | 
CCCCCCCCCCC[C@H](CC(=O)N[C@H]1[C@H](OC[C@H](NC(=O)C[C@@H](CCCCCCCCCCC)OC(=O)CCCCCCCCC)C(=O)O)O[C@H](CO)[C@@H](OP(=O)(O)O)[C@@H]1OC(=O)C[C@@H](CCCCCCCCCCC)OC(=O)CCCCCCCCC)OC(=O)CCCCCCCCC [CRX527] |  |  | spatial memory improvement |  |  |  | increase |  |  |  |  |  |  | significant improvements
